Results taken from PMC10623271 (Heliyon, 2023).

Target: α-glucosidase from Bacillus stearothermophilus
Assay: α-glucosidase assay
Format: biochemical
Details: positive control, pNPG, 20 min 60 °C, pH 6.8, ± SD

SMILES: C[C@H]1O[C@H](O[C@H]2[C@H](O)[C@@H](O)[C@@H](O[C@H]3[C@H](O)[C@@H](O)C(O)O[C@@H]3CO)O[C@@H]2CO)[C@H](O)[C@@H](O)[C@@H]1N[C@H]1C=C(CO)[C@@H](O)[C@H](O)[C@H]1O (stereo partly shown) [Acarbose, acarbose]
- IC50: 2.9 ± 0.4 nM
